Laboratory results reported in ChEMBL document CHEMBL5154777, “Alternative approaches utilizing click chemistry to develop next-generation analogs of solithromycin” (2022).
Values after ≈ are worked out from the molar mass of the structure shown.

Columns and labels:
Assay type in all cases: functional
[1] = system: Escherichia coli; test: Antibacterial activity against Escherichia coli MG1655
[2] = system: Streptococcus pneumoniae; test: Antibacterial activity against Streptococcus pneumoniae 655 mef A
[3] = system: Streptococcus pneumoniae; test: Antibacterial activity against Streptococcus pneumoniae 2634 mef A 2059G
[4] = system: Staphylococcus aureus; test: Antibacterial activity against Staphylococcus aureus ATCC 29213
[5] = system: Escherichia coli; test: Antibacterial activity against Escherichia coli DK3535
[6] = system: Escherichia coli; test: Antibacterial activity against Escherichia coli DK
[7] = system: Pseudomonas aeruginosa; test: Antibacterial activity against Pseudomonas aeruginosa HER 1018
[8] = system: Staphylococcus aureus; test: Antibacterial activity against Staphylococcus aureus UCN18
[9] = system: Enterococcus faecium; test: Antibacterial activity against Enterococcus faecium NCTC 7171
[10] = system: Escherichia coli; test: Antibacterial activity against Escherichia coli SQ171
[11] = system: Klebsiella pneumoniae; test: Antibacterial activity against Klebsiella pneumoniae BAA 2146
[12] = system: Streptococcus pneumoniae; test: Antibacterial activity against Streptococcus pneumoniae 2196 erm B
[13] = system: Enterobacter cloacae; test: Antibacterial activity against Enterobacter cloacae ATCC 13047
[14] = system: Escherichia coli; test: Antibacterial activity against Escherichia coli DK2058G
[15] = system: Staphylococcus aureus; test: Antibacterial activity against Staphylococcus aureus UCN14
[16] = system: Escherichia coli; test: Antibacterial activity against Escherichia coli SQ171 2058G
[17] = system: Acinetobacter baumannii; test: Antibacterial activity against Acinetobacter baumannii 2208 ATCC 19606
[18] = system: Staphylococcus aureus; test: Antibacterial activity against Staphylococcus aureus UCN17
[19] = system: Staphylococcus aureus; test: Antibacterial activity against Staphylococcus aureus ATCC 33591
[20] = system: Staphylococcus aureus; test: Antibacterial activity against methicillin-resistant Staphylococcus aureus ATCC 43300

CC[C@H]1OC(=O)[C@@](C)(F)C(=O)[C@H](C)[C@@H](O[C@@H]2O[C@H](C)C[C@H](N(C)C)[C@H]2O)[C@](C)(OC)C[C@@H](C)C(=O)[C@H](C)[C@H]2N(CCCCn3cc(-c4cccc(N)c4)nn3)C(=O)O[C@]12C [SOLITHROMYCIN]
MIC [1]: 100 µM (≈ 84.5 µg/mL)
MIC [2]: 0.29 µM (≈ 0.245 µg/mL)
MIC [3]: 0.15 µM (≈ 0.127 µg/mL)
MIC [4]: 0.071 µM (≈ 0.06 µg/mL)
MIC [5]: 2.4 µM (≈ 2.03 µg/mL)
MIC [6]: 2.4 µM (≈ 2.03 µg/mL)
MIC [7]: 30 µM (≈ 25.4 µg/mL)
MIC [8]: 4.7 µM (≈ 3.97 µg/mL)
MIC [9]: 0.2 µM (≈ 0.169 µg/mL)
MIC [10]: > 38 µM
MIC [11]: 100 µM (≈ 84.5 µg/mL)
MIC [12]: 0.59 µM (≈ 0.499 µg/mL)
MIC [13]: 200 µM (≈ 169 µg/mL)
MIC [14]: 4.7 µM (≈ 3.97 µg/mL)
MIC [15]: 9.5 µM (≈ 8.03 µg/mL)
MIC [16]: > 38 µM
MIC [17]: 50 µM (≈ 42.3 µg/mL)
MIC [18]: 4.7 µM (≈ 3.97 µg/mL)
MIC [19]: 38 µM (≈ 32.1 µg/mL)
MIC [20]: > 200 µM
